The values below are quoted from earlier work in PubChem BioAssay AID1259409 (Chemical Carcinogenesis Research Information System (CCRIS), 2018).

The data set has as its system rodent chemically induced tumor inhibition, incidence and multiplicity. Description: CCRIS tumor inhibitor studies. The note with it: Carcinogen: N-NITROSOBIS(2-OXOPROPYL)AMINE [60599-38-4], Dose [Inhibitor]: 200 PPM FOR 16 WK BEGINNING 1 WK POST CHOLECYSTODUOODENOSTOMY AND LIGATION OF DISTAL END OF COMMON DUCT (STUDY DURATION:, Route [Inhibitor]: ORAL, Species: HAMSTER, Strain/Sex: SYRIAN/FEMALE, Promoter: NONE.

In the case of `CCS(=O)(=O)Nc1ncc(C(F)(F)F)cc1NC(=O)C1CCCCC1`, the “tumour outcome (control, treated, inhibition, significance)” value by setting is: (Target Tissue: Type of Lesion: EXTRAHEPATIC BILE DUCT: ADENOCARCINOMA, Dose [Carcinogen]: 10 MG/KG BW 1X/WK FOR 10 WK BEGINNING 1 WK POST CHOLECYSTODUODENOSTOMY AND LIGATION OF DISTAL END OF COMMON DUCT (STUDY) 14/26 (54%), 2/15 (13%), 76%, p<0.05; (Target Tissue: Type of Lesion: GALL BLADDER: ADENOCARCINOMA, Dose [Carcinogen]: 10 MG/KG BW 1X/WK FOR 10 WK BEGINNING 1 WK POST CHOLECYSTODUOODENOSTOMY AND LIGATION OF DISTAL END OF COMMON DUCT (STUDY) 18/26 (69%), 3/15 (20%), 71%, p<0.01; (Target Tissue: Type of Lesion: INTRAHEPATIC BILE DUCT: ADENOCARCINOMA, Dose [Carcinogen]: 10 MG/KG BW 1X/WK FOR 10 WK BEGINNING 1 WK POST CHOLECYSTODUODENOSTOMY AND LIGATION OF DISTAL END OF COMMON DUCT (STUDY) 14/26 (54%), 3/15 (20%), 63%, p<0.05.
